Assay results taken from patent US8822451B2, “Modulators of ATP-binding cassette transporters” (Vertex Pharmaceuticals Incorporated, priority 2005, dated 2014).
pEC50: −log10 of the molar value.

Target: T1, […]F508-CFTR (Homo sapiens, UniProt P13569, DEL508-508)
T1 construct: expressed in transfected cells
Assay: Assay results of Table 3: ΔF508-CFTR modulation, membrane potential optical assay (assay format not stated)
Format: cell-based
Conditions: NIH3T3 mouse fibroblasts stably expressing […]F508-CFTR (optical assays); for Efficacy: efficacy range; for pEC50: potency range
Source text: A. Membrane Potential Optical Methods for Assaying […]F508-CFTR Modulation Properties of Compounds
The optical membrane potential assay utilized voltage-sensitive FRET sensors described by Gonzalez and Tsien (See, Gonzalez, J. E. and R. Y. Tsien (1995) “Voltage sensing by fluorescence resonance energy transfer in single cells” Biophys J 69(4): 1272-80, and Gonzalez, J. E. and R. Y. Tsien (1997) “Improved indicators of cell membrane potential that use fluorescence resonance energy transfer” Chem Biol 4(4): 269-77) in combination with instrumentation for measuring fluorescence changes such as the Voltage/Ion Probe Reader (VIPR) (See, Gonzalez, J. E., K. Oades, et al. (1999) “Cell-based assays and instrumentation for screening ion-channel targets” Drug Discov Today 4(9): 431-439).
These voltage sensitive assays are based on the change in fluorescence resonant energy transfer (FRET) between the membrane-soluble, voltage-sensitive dye, DiSBAC2(3), and a fluorescent phospholipid, CC2-DMPE, which is attached to the outer leaflet of the plasma membrane and acts as a FRET donor. Changes in membrane potential (Vm) cause the negatively charged DiSBAC2(3) to redistribute across the plasma membrane and the amount of energy transfer from CC2-DMPE changes accordingly. The changes in fluorescence emission were monitored using VIPR™ II, which is an integrated liquid handler and fluorescent detector designed to conduct cell-based screens in 96- or 384-well microtiter plates.
To identify small molecules that correct the trafficking defect associated with ΔF508-CFTR; a single-addition HTS assay format was developed. The cells were incubated in serum-free medium for 16 hrs at 37° C. in the presence or absence (negative control) of test compound. As a positive control, cells plated in 384-well plates were incubated for 16 hrs at 27° C. to “temperature-correct” […]F508-CFTR. The cells were subsequently rinsed 3× with Krebs Ringers solution and loaded with the voltage-sensitive dyes. To activate […]F508-CFTR, 10 µM forskolin and the CFTR potentiator, genistein (20 µM), were added along with Cl^−-free medium to each well. The addition of Cl^−-free medium promoted Cl^− efflux in response to […]F508-CFTR activation and the resulting membrane depolarization was optically monitored using the FRET-based voltage-sensor dyes.
To identify potentiators of […]F508-CFTR, a double-addition HTS assay format was developed. During the first addition, a Cl^−-free medium with or without test compound was added to each well. After 22 sec, a second addition of Cl^−-free medium containing 2-10 µM forskolin was added to activate […]F508-CFTR. The extracellular Cl^− concentration following both additions was 28 mM, which promoted Cl^− efflux in response to […]F508-CFTR activation and the resulting membrane depolarization was optically monitored using the FRET-based voltage-sensor dyes.
Bath Solution #1: (in mM) NaCl 160, KCl 4.5, CaCl2 2, MgCl2 1, HEPES 10, pH 7.4 with NaOH.
Chloride-free bath solution: Chloride salts in Bath Solution #1 are substituted with gluconate salts.
CC2-DMPE: Prepared as a 10 mM stock solution in DMSO and stored at −20° C.
DiSBAC2(3): Prepared as a 10 mM stock in DMSO and stored at −20° C.
NIH3T3 mouse fibroblasts stably expressing […]F508-CFTR are used for optical measurements of membrane potential. The cells are maintained at 37° C. in 5% CO2 and 90% humidity in Dulbecco's modified Eagle's medium supplemented with 2 mM glutamine, 10% fetal bovine serum, 1× NEAA, […]-ME, 1× pen/strep, and 25 mM HEPES in 175 cm^2 culture flasks. For all optical assays, the cells were seeded at 30,000/well in 384-well matrigel-coated plates and cultured for 2 hrs at 37° C. before culturing at 27° C. for 24 hrs for the potentiator assay. For the correction assays, the cells are cultured at 27° C. or 37° C. with and without compounds for 16-24 hoursB.

T1 sequence (P13569 with tags, fused parts or gaps DEL508-508): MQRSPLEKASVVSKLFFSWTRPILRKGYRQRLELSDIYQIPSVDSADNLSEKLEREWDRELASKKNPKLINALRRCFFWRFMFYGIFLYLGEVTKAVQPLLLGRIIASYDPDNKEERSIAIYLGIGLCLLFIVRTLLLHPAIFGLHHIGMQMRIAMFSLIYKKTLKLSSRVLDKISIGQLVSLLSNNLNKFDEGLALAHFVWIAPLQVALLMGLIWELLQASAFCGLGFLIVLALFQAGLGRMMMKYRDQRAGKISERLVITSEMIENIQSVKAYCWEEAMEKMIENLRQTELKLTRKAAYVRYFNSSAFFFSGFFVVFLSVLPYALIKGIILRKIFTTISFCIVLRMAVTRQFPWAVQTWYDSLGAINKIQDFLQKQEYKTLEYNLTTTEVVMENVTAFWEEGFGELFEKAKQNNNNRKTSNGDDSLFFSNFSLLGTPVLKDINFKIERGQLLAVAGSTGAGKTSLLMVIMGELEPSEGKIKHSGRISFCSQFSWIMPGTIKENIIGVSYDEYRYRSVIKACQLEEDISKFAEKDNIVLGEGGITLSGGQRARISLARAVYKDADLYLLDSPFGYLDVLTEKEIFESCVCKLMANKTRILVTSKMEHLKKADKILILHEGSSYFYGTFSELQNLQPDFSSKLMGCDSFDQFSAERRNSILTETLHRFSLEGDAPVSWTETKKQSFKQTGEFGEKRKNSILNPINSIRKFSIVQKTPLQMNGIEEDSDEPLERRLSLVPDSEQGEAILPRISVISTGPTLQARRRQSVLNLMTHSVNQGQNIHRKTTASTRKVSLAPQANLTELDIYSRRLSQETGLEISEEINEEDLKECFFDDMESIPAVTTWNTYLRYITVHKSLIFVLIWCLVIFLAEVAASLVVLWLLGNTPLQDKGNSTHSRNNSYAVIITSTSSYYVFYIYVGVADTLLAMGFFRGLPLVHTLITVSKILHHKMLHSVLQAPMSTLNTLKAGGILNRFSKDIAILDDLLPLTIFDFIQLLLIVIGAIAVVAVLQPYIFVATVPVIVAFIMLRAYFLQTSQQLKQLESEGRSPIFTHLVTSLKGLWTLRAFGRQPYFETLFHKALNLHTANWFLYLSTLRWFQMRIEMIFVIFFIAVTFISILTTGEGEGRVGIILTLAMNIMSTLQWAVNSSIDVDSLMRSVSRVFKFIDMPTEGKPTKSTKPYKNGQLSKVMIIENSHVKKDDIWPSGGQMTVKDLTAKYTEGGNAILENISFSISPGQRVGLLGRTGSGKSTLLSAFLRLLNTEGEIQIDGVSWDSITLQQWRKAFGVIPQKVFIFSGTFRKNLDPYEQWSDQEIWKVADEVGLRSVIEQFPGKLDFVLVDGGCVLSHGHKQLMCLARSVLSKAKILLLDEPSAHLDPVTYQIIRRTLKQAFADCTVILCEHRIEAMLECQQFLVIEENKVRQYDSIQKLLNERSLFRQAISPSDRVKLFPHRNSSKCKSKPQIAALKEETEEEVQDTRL

pEC50 | SMILES | Efficacy
5.30 to 6.00 | NC(=O)c1cc(-c2ccccc2C(F)(F)F)nc(N2CCCCC2)n1 [Compound 72] | ++ (++ corresponds to Efficacy between 100 and 50)
< 5.30 | NC(=O)c1cc(-c2ccc3c(c2)OCO3)nc(N2CCCCC2)n1 [Compound 227] | ++ (++ corresponds to Efficacy between 100 and 50)
< 5.30 | CC1CCCN(c2nc(C(N)=O)cc(-c3ccccc3)n2)C1 (centres unmarked) [Compound 149] | ++ (++ corresponds to Efficacy between 100 and 50)
5.30 to 6.00 | COc1ccc(Cl)cc1-c1cc(C(N)=O)nc(N2CCCCC2)n1 [Compound 115] | ++ (++ corresponds to Efficacy between 100 and 50)
5.30 to 6.00 | NC(=O)c1cc(-c2cc(Cl)cc(Cl)c2)nc(N2CCCCC2)n1 [Compound 199] | ++ (++ corresponds to Efficacy between 100 and 50)
< 5.30 | CN(C)C(=O)c1cc(-c2ccccc2)nc(N2CCCCC2)n1 [Compound 222] | ++ (++ corresponds to Efficacy between 100 and 50)
< 5.30 | NC(=O)c1cc(-c2ccccc2)nc(N2CCC(CCO)CC2)n1 [Compound 181] | ++ (++ corresponds to Efficacy between 100 and 50)
5.30 to 6.00 | COc1ccc(OC)c(-c2cc(C(N)=O)nc(N3CCCCC3)n2)c1 [Compound 8] | ++ (++ corresponds to Efficacy between 100 and 50)
< 5.30 | COc1ccc(C(C)C)cc1-c1cc(C(N)=O)nc(N2CCCCC2)n1 [Compound 224] | + (+ corresponds to Efficacy less than 50)
< 5.30 | NC(=O)c1cc(-c2cccc(F)c2)nc(N2CCCCC2)n1 [Compound 122] | +++ (+++ corresponds to Efficacy greater than 100)
5.30 to 6.00 | NC(=O)c1cc(-c2ccccc2Oc2ccccc2)nc(N2CCCCC2)n1 [Compound 146] | +++ (+++ corresponds to Efficacy greater than 100)
5.30 to 6.00 | NC(=O)c1cc(-c2ccccc2OC(F)(F)F)nc(N2CCCCC2)n1 [Compound 152] | ++ (++ corresponds to Efficacy between 100 and 50)
5.30 to 6.00 | CCOc1ccccc1-c1cc(C(N)=O)nc(N2CCCCC2)n1 [Compound 127] | ++ (++ corresponds to Efficacy between 100 and 50)
< 5.30 | NC(=O)c1cc(-c2ccccc2)nc(N2CCOCC2)n1 [Compound 167] | ++ (++ corresponds to Efficacy between 100 and 50)

Continued, molecule first:

SMILES | pEC50 | Efficacy
CCCCCN(C)c1nc(C(N)=O)cc(-c2ccccc2)n1 [Compound 186] | 5.30 to 6.00 | +++ (+++ corresponds to Efficacy greater than 100)
NC(=O)c1cc(-c2ccccc2)nc(N(Cc2ccccc2)Cc2ccccc2)n1 [Compound 92] | 5.30 to 6.00 | ++ (++ corresponds to Efficacy between 100 and 50)
CNC(=O)c1cc(-c2ccccc2)nc(NCc2ccco2)n1 [Compound 2] | < 5.30 | ++ (++ corresponds to Efficacy between 100 and 50)
NC(=O)c1cc(-c2ccccc2)nc(NC2CCCC2)n1 [Compound 112] | < 5.30 | + (+ corresponds to Efficacy less than 50)
CCN(CC)c1nc(C(N)=O)cc(-c2cccc(C)c2C)n1 [Compound 120] | > 6.00 | ++ (++ corresponds to Efficacy between 100 and 50)
CCN(CC)c1nc(C(N)=O)cc(-c2c(F)cccc2F)n1 [Compound 125] | > 6.00 | ++ (++ corresponds to Efficacy between 100 and 50)
CCOCCN(CCOCC)c1nc(C(N)=O)cc(-c2ccccc2)n1 [Compound 190] | > 6.00 | ++ (++ corresponds to Efficacy between 100 and 50)
COc1ccccc1-c1cc(C(N)=O)nc(N2CC=CCC2)n1 [Compound 135] | < 5.30 | ++ (++ corresponds to Efficacy between 100 and 50)
CCCCCCN(C)c1nc(C(N)=O)cc(-c2ccccc2)n1 [Compound 201] | 5.30 to 6.00 | +++ (+++ corresponds to Efficacy greater than 100)
COc1cccc(-c2cc(C(N)=O)nc(N3CC=CCC3)n2)c1 [Compound 15] | < 5.30 | ++ (++ corresponds to Efficacy between 100 and 50)
CCN(CC)c1nc(C(=O)N(C)C)cc(-c2ccccc2)n1 [Compound 117] | < 5.30 | +++ (+++ corresponds to Efficacy greater than 100)
O=C(c1cc(-c2ccccc2)nc(N2CC=CC2)n1)N1CC=CC1 [Compound 93] | < 5.30 | ++ (++ corresponds to Efficacy between 100 and 50)
CCN(CC)c1nc(C(N)=O)cc(-c2cccc(F)c2)n1 [Compound 160] | < 5.30 | ++ (++ corresponds to Efficacy between 100 and 50)
CCN(CC)c1nc(C(N)=O)cc(-c2ccc(F)cc2F)n1 [Compound 107] | > 6.00 | ++ (++ corresponds to Efficacy between 100 and 50)
C#CCNc1nc(C(N)=O)cc(-c2ccccc2)n1 [Compound 154] | < 5.30 | + (+ corresponds to Efficacy less than 50)
CCN(CC)c1nc(C(N)=O)cc(-c2ccc(OC)nc2)n1 [Compound 229] | 5.30 to 6.00 | ++ (++ corresponds to Efficacy between 100 and 50)
CCN(CC)c1nc(C(=O)N2CCCCC2)cc(-c2ccccc2)n1 [Compound 157] | < 5.30 | + (+ corresponds to Efficacy less than 50)
CCOc1cccc(-c2cc(C(N)=O)nc(N(CC)CC)n2)c1 [Compound 212] | > 6.00 | +++ (+++ corresponds to Efficacy greater than 100)
NC(=O)c1cc(-c2ccccc2)nc(N2CCC(n3c(=O)[nH]c4ccccc43)CC2)n1 [Compound 139] | < 5.30 | ++ (++ corresponds to Efficacy between 100 and 50)
C#CCNc1nc(C(N)=O)cc(-c2cccc(OC)c2)n1 [Compound 145] | < 5.30 | ++ (++ corresponds to Efficacy between 100 and 50)
CN(CC#N)c1nc(C(N)=O)cc(-c2ccccc2)n1 [Compound 83] | < 5.30 | + (+ corresponds to Efficacy less than 50)
CCN(CC)c1nc(C(N)=O)cc(-c2cc(F)ccc2F)n1 [Compound 163] | > 6.00 | ++ (++ corresponds to Efficacy between 100 and 50)
N#CC1(c2ccccc2)CCN(c2nc(C(N)=O)cc(-c3ccccc3)n2)CC1 [Compound 180] | < 5.30 | ++ (++ corresponds to Efficacy between 100 and 50)
CCN(CC)c1nc(C(N)=O)cc(-c2ccc(F)c(C)c2)n1 [Compound 131] | 5.30 to 6.00 | +++ (+++ corresponds to Efficacy greater than 100)
C=CCNc1nc(C(N)=O)cc(-c2ccccc2OC)n1 [Compound 178] | 5.30 to 6.00 | +++ (+++ corresponds to Efficacy greater than 100)
CCN(CCO)c1nc(C(N)=O)cc(-c2ccccc2OC)n1 [Compound 228] | < 5.30 | ++ (++ corresponds to Efficacy between 100 and 50)
CCCCN(CCO)c1nc(C(N)=O)cc(-c2ccccc2)n1 [Compound 19] | 5.30 to 6.00 | ++ (++ corresponds to Efficacy between 100 and 50)
CCc1ccc(-c2cc(C(N)=O)nc(N(CC)CC)n2)cc1 [Compound 116] | 5.30 to 6.00 | +++ (+++ corresponds to Efficacy greater than 100)
CCN(CC)c1nc(C(N)=O)cc(-c2ccc(CC(C)C)cc2)n1 [Compound 184] | > 6.00 | ++ (++ corresponds to Efficacy between 100 and 50)
